Data on four compounds can be found in patent US8828997B2, “2,3-dihydro-1H-imidazo(1,2-a)pyrimidin-5-one derivatives, preparation thereof, and pharmaceutical use thereof” (Sanofi, priority 2009, dated 2014).

Holding throughout (assay type): cell-based
Test [1] relates to P. falciparum (highly chloroquine-resistant strain Fcm29-Cameroon). As to the kind of experiment: Antimalarial activity test (radioactive micromethod of Desjardins, tritiated hypoxanthine incorporation). Conditions: Plasmodium falciparum, Erythrocyte, infected human erythrocytes, 48 h. On the procedure: Antimalarial Activity Test
The antimalarial activity tests are carried out according to the radioactive micromethod of Desjardins (R. E. Desjardins, C. J. Canfield, J. D. Haynes, J. D. Chulay, Antimicrob. Agents Chemother., 1979, 16, 710-718). The assays are carried out in 96-well microplates (Test Plates Ref. 92696, Techno Plastic Products Ag, Zollstrasse 155, CH-8219 Trasadingen). The P. falciparum strains are cultured in solutions of RPMI 1640 supplemented with 5% of human serum with a haematocrit at 2% and a blood parasite concentration at 1.5%. For each assay, the parasites are incubated with selected concentrations of drugs for 48 h at 37° C. in a humid atmosphere and at 5% CO2. Artemisinin, artesunate and also chloroquine diphosphate are used as reference molecules. The first dilution of the drug is prepared at 1 mg/ml in dimethyl sulphoxide. The range of dilutions of the successive daughter solutions is also prepared in dimethyl sulphoxide. Each daughter dilution is subsequently diluted to 1/50 in RPMI 1640 supplemented with 5% of human serum, all the dilutions being carried out at 37° C. These dilutions are then added to the parasites in culture in the microplates. After addition of the drug, the parasites are in culture in RPMI 1640 containing 5% of human serum and 1% of dimethyl sulphoxide. The parasite growth is measured by incorporation of tritiated hypoxanthine (added 24 h after the beginning of the exposure to the drug) compared with the incorporation in the absence of drug.
The activity of the product is translated to % inhibition of the growth of P. falciparum (highly chloroquine-resistant strain Fcm29-Cameroon) at 1 μM and 0.1 μM in an in vitro test using infected human erythrocytes.

In test [2] the test system is AKT protein phosphorylated on serine 473 (P-AKT-S473) in PC3 human prostate carcinoma cells. As to the kind of experiment: pAKT expression in PC3 human prostate carcinoma cells measured by MSD Multi-spot Biomarker detection (test B). Conditions: Homo sapiens, PC-3, P-AKT-S473, PC3 cells, MSD sandwich immunoassay, 1 to 2 h incubation, absolute IC50. On the procedure: The inhibitory activity of the molecules on AKT phosphorylation is measured either by western blotting using the technique described below, or by the MSD Multi-spot Biomarker detection technique from Meso Scale Discovery also described below.
Study of pAKT Expression in PC3 Human Prostate Carcinoma Cells Measured by the MSD Multi-Spot Biomarker Detection Technique from Meso Scale Discovery (Test B):
This test is based on measuring the expression of the AKT protein phosphorylated on serine 473 (P-AKT-S473), in the PC3 human prostate carcinoma line, by means of the technique based on a sandwich immunoassay using the MSD Multi-spot Biomarker Detection kit from Meso Scale Discovery: phospho-Akt (Ser473) whole cell lysate kit (#K151CAD) or phospho-Akt (Ser473)/Total Akt whole cell lysate kit (#K151OOD). The primary antibody specific for P-AKT-S473 (Kit #K151CAD) is coated onto an electrode in each well of the 96-well plates of the MSD kit: after the addition of a protein lysate to each well, the signal is visualised by adding a secondary detection antibody labelled with an electrochemoluminescent compound. The procedure followed is that described in the kit.
On day 1, the PC3 cells are seeded into 96-well plates (TPP, #92096) at the concentration of 35 000 cells/well in 200 μl of DMEM medium (DMEM Gibco #11960-044) containing 10% of foetal calf serum (FCS Gibco, #10500-056) and 1% glutamine (L-Glu Gibco #25030-024), and incubated at 37° C., 5% CO2, overnight.
On day 2, the cells are incubated in the presence or absence of the test products for 1 to 2 h at 37° C. in the presence of 5% of CO2. The molecules, diluted in dimethyl sulphoxide (DMSO Sigma #D2650), are added from a 20-times concentrated stock solution, the final percentage of DMSO being 0.1%. The molecules are tested either at a single concentration of less than or equal to 10 μM, or at increasing concentrations in a range that can extend from less than 1 nM to 10 μM.
After this incubation, the cells are lysed for the preparation of the proteins. For this, after the culture medium has been drawn off, 50 μl of complete Tris Lysis Buffer of the MSD kit containing the protease and phosphatase inhibitor solutions are added to the wells and the cells are lysed for 1 h at 4° C. with shaking. At this stage, the plates containing the lysates can be stored at −20° C. or at −80° C.
The wells of the 96-well plates of the MSD kit are saturated for 1 h at ambient temperature with the blocking solution of the MSD kit. Four washes are carried out with 150 μl of Tris Wash Buffer of the MSD kit. The lysates previously prepared are transferred into the 96-well multi-spot plates of the MSD kit and incubated for 1 h at ambient temperature, with shaking. Four washes are carried out with 150 μl of Tris Wash Buffer of the MSD kit. 25 μl of the MSD sulfo-tag detection antibody solution are added to the wells and incubated for 1 h at ambient temperature, with shaking. Four washes are carried out with 150 μl of Tris Wash Buffer of the MSD kit. 150 μl of Read Buffer of the MSD kit are added to the wells and the plates are read immediately on the S12400 instrument from Meso Scale Discovery.
The instrument measures a signal for each well. Wells without cells and containing the lysis buffer serve to determine the background noise that will be subtracted from all the measurements (min). The wells containing cells in the absence of product and in the presence of 0.1% DMSO are considered to be the 100% signal (max). The percentage inhibition is calculated for each concentration of test product according to the following formula: (1-((test−min)/(max−min)))×100.
The activity of the product is translated to IC50, obtained from a dose-response curve of the various concentrations tested and representing the dose giving 50% specific inhibition (absolute IC50). 2 independent experiments make it possible to calculate the mean of the IC50 values.

Test [3] concerns translocation of the LC3 protein in Hela GFP-LC3 cells. As to the kind of experiment: Translocation of the LC3 protein in Hela human cells measured by image analysis cytometry (test C, autophagy). Conditions: Homo sapiens, HeLa, 2 h, EBSS + 10 μM hydroxychloroquine, cells with LC3 granulations, absolute IC50. Here is the method:
Inhibitory activity of the molecules on autophagy is measured by means of the translocation of the LC3 protein from the cytoplasm to the autophagosomes. For this, Hela cells were transfected with a vector encoding the chimeric protein GFP-LC3. A Hela clone stably expressing the GFP-LC3 protein was selected.
Study of the Translocation of the LC3 Protein in Hela Human Cells, Measured by Image Analysis Cytometry (Test C):
On day 1, the Hela GFP-LC3 cells are seeded into 96-well plates coated with poly-D-lysine (Greiner, #655946) at the concentration of 15000 cells/well in 200 μl of DMEM medium (DMEM Gibco #11960-044) containing 10% of foetal calf serum (FCS Gibco, #10500-056) and 1% glutamine (L-Glu Gibco #25030-024), and incubated at 37° C., 5% CO2, overnight.
On day 2, the cells are washed twice with EBSS (Sigma #E3024). The cells are then incubated in EBSS, 10 μM hydroxychloroquine and test products, for 2 hours at 37° C. in the presence of 5% CO2. The molecules are diluted in dimethyl sulphoxide (DMSO Sigma #D2650), the final DMSO percentage being 0.1%. The molecules are tested at increasing concentrations in a range that can extend from 10 nM to 1 μM.
After this incubation, the cells are fixed with 4% paraformaldehyde (Sigma #HT501128 4L) for 10 min. The cells are then washed twice with PBS and the nuclei then stained with 2 μg/ml of Hoechst 33342 (Invitrogen #H3570). The 96-well plates are then read with the iCyte image analysis cytometer (Compucyte).
The activity of the product is translated to IC50, obtained from a dose-response curve of various concentrations tested and representing the dose giving 50% specific inhibition (absolute IC50). 2 independent experiments make it possible to calculate the mean of the IC50 values.

On to `C[C@@]1(C(F)(F)F)Cn2c(nc(N3CCOCC3)cc2=O)N1CCc1cccc(Cl)c1` [Example 29, (2S)-1-[2-(3-Chlorophenyl)ethyl]-2-methyl-7-(morpholin-4-yl)-2-(trifluoromethyl)-2,3-dihydroimidazo[1,2-a]pyrimidin-5(1H)-one], for which the inhibition at 1 µM in test [1] came to 52%. Moreover, the IC50 in test [2] turned out to be 6 nM; in test [3], 261 nM.

As to `COc1cccc(CCN2c3nc(N4CCOCC4)cc(=O)n3C[C@@]2(C)C(F)(F)F)c1` [Example 26, (2S)-1-[2-(3-Methoxyphenyl)ethyl]-2-methyl-7-(morpholin-4-yl)-2-(trifluoromethyl)-2,3-dihydroimidazo[1,2-a]pyrimidin-5(1H)-one], in test [1], the inhibition at 0.1 µM was found to be 14% and the inhibition at 1 µM came out at 75%. The compound also displayed an IC50 in test [2] of 16 nM.

Consider `C[C@@]1(C(F)(F)F)Cn2c(nc(N3CCOCC3)cc2=O)N1CCc1ccccc1Cl` [Example 27, (2S)-1-[2-(2-Chlorophenyl)ethyl]-2-methyl-7-(morpholin-4-yl)-2-(trifluoromethyl)-2,3-dihydroimidazo[1,2-a]pyrimidin-5(1H)-one], for which, in test [1], the inhibition at 1 µM is 53%. Moreover, the IC50 was 24 nM in test [2] and 51 nM in test [3].

As for `C[C@@]1(C(F)(F)F)Cn2c(nc(N3CCOCC3)cc2=O)N1CCc1ccc(Cl)cc1` [Example 28, (2S)-1-[2-(4-Chlorophenyl)ethyl]-2-methyl-7-(morpholin-4-yl)-2-(trifluoromethyl)-2,3-dihydroimidazo[1,2-a]pyrimidin-5(1H)-one], in test [1], the inhibition at 0.1 µM worked out at 14% and the inhibition at 1 µM worked out at 53%. Further, half-maximal inhibition in test [2] (IC50) required 10 nM. Moreover, the IC50 in test [3] was 198 nM.
